For 23 compounds, IC50 results are on record in patent publication US20260226069A1, “GCN2 AND PERK KINASE MODULATORS AND METHODS OF USE THEREOF” (Deciphera Pharmaceuticals, LLC, priority 2023, published 2026).

pIC50: −log10 of the molar value.

The test system of test [1] is ASNase treated CCRF-CEM cells. The experiment in a line: CCRF-CEM ASNase cell proliferation assay, phenotypic assay for cellular inhibition of GCN2. It is filed as cell-based. The following applies: Homo sapiens, 1 mU/mL ASNase, 72 h, resazurin. On the procedure: CCRF-CEM ASNase Cell Proliferation Assay, a Phenotypic Assay for Cellular Inhibition of GCN2.
CCRF-CEM leukemia cells (catalog #CCL-116) were obtained from the American Type Culture Collect (ATTC, Manassas, VA). Cells were grown in RPMI-1640 medium supplemented with 10% heat-inactivated fetal bovine serum (Invitrogen, Carlsbad, CA) and 1% Penicillin/Streptomycin/L-Glutamine at 37° C., 5% CO2, and 95% humidity. Cells were expanded until reaching one million cells per mL at which time they are subcultured or harvested for assay use. Ten thousand cells per well in 200 μL RPMI-1640 supplemented with 10% heat-inactivated fetal bovine serum and 1% Penicillin/Streptomycin were dispensed into a 96-well black clear bottom plate. A serial dilution of test compound and 1 mU/mL ASNase was added in triplicate and plates were incubated for 72 h at 37° C., 5% CO2, and 95% humidity. At the end of the incubation, 40 μL of a […] solution of resazurin (Sigma, St. Louis, MO) in PBS was added to each well of the plate and plates were incubated for an additional 6 h at 37° C., 5% CO2, and 95% humidity. Plates were read on a Synergy2 or equivalent reader (Biotek, Winooski VT) using an excitation of 540 nm and an emission of 600 nm. Data was analyzed using GraphPad Prism software (GraphPad, San Diego, CA) to calculate IC50 values.
On the technique in general: The colour change of resazurin is a common sign of viable cells or microbes.

In test [2] the test system is ATF4 in Thapsigargin stimulated CCRF-CEM cells. The experiment in a line: CCRF-CEM TG ATF4 ELISA, phenotypic assay for cellular inhibition of PERK preactivated by thapsigargin. It counts as cell-based. The following applies: Homo sapiens, 3 h, compound three hours then 1 μM thapsigargin for an additional hour. On the procedure: CCRF-CEM TG ATF4 ELISA, a Phenotypic Assay for Cellular Inhibition of PERK Preactivated by Thapsigargin (TG)
CCRF-CEM leukemia cells (catalog #CCL-116) were obtained from the American Type Culture Collection (ATTC, Manassas, VA). Briefly, cells were grown in RPMI-1640 medium supplemented with 10% heat-inactivated fetal bovine serum (Invitrogen, Carlsbad, CA) and 1% Penicillin/Streptomycin/L-Glutamine at 37° C., 5% CO2, and 95% humidity. Cells were expanded until reaching one million cells per mL at which time they were subcultured or harvested for assay use. One million five hundred thousand cells per well in 1 mL complete growth medium were dispensed into 12-well plates and incubated overnight. A serial dilution of test compound was added and cells were incubated at 37° C., 5% CO2, and 95% for three hours, then 1 μM thapsigargin was added and cells were incubated for an additional hour at 37° C., 5% CO2, and 95%. Cells were lysed then ATF4 levels were measured using an ELISA assay (Proteintech, Rosemont, IL). Absorbance was measured at 450 nm and 544 nM using a Synergy2 or equivalent reader (Biotek, Winooski VT). Data was analyzed using PRISM software (Graphpad, San Diego, CA) to calculate IC50 values.
Background: An ELISA detects its analyte on a solid surface through an enzyme-linked reagent.

In test [3] the target is T1, GCN2 kinase (Homo sapiens, UniProt Q9P2K8).
T1 construct: G556E with a; purchased Carna Biosciences
Nature of the test: Biochemical assay for GCN2 (TR-FRET kinase activity assay). To be noted: 2 nM GCN2, 1 mM ATP, 3-hour incubation. As to the method:
Biochemical assay for GCN2
Activity of GCN2 kinase was determined using a TR-FRET kinase activity assay (e.g., Analytical Biochemistry, 2006, 356, 108-116). Assays were conducted in 384-well plates (13 μL assay volume) using 2 nM GCN2 (Carna Biosciences), 130 nM GFP-EIf2α (Invitrogen), 0.2 mg/mL E. coli tRNA (sigma) and 1 mM ATP in kinase buffer (Invitrogen). Inhibition of GCN2 was measured by adding serial diluted test compound (final assay concentration of 0.5% DMSO) followed by a 3-hour incubation. Tb-peIF2α (pSer52) antibody (Invitrogen) (2 nM final assay concentration) in kinase buffer containing EDTA (final assay concentration of 20 mM) was added. After a 60 min incubation at room temperature, TR-FRET was monitored using an excitation wavelength of 340 nm and emission wavelengths of 490 nm and 520 nm. The emission ratio (520/490) at each compound concentration of was converted to percent inhibition using controls (i.e., reaction with no test compound and reaction with a known inhibitor) and IC50 values were calculated by fitting a four-parameter sigmoidal curve to the data using Prism (GraphPad software).
For orientation: Time-resolved FRET reads energy transfer from a long-lived donor to a nearby acceptor.

The target in test [4] is T2, PERK kinase (Homo sapiens, UniProt Q9NZJ5, A704S).
T2 construct: GST (with thrombin site LVPRGS); purchased Beryllium
The experiment in a line: Biochemical assay for PERK (coupled pyruvate kinase/lactate dehydrogenase assay). To be noted: 10 nM PERK, 1 mM ATP, reaction rate 2-3 h time frame, 30° C. As to the method: Biochemical Assay for PERK
Activity of PERK kinase was determined spectroscopically using a coupled pyruvate kinase/lactate dehydrogenase assay that continuously monitors the ATP hydrolysis-dependent oxidation of NADH (Science, 2000, 289, 1938-1942). Assays were conducted in 384-well plates (100 μL final volume) using 10 nM PERK (from Beryllium), 0.25 mg/mL Myelin Basic Protein substrate, 1.5 units pyruvate kinase, 2.1 units lactate dehydrogenase, 1 mM phosphoenol pyruvate, 0.28 mM NADH and 1 mM ATP in assay buffer (100 mM Tris, pH 7.5, 15 mM MgCl2, 0.5 mM DTT, 0.004% (w/v) BSA, and 0.004% Triton X-100). Inhibition of PERK was measured by adding serial diluted test compound (final assay concentration of 1% DMSO). A decrease in absorption at 340 nm was monitored continuously for 6 hours at 30° C. on a multi-mode microplate reader (BioTek). The reaction rate was calculated using the 2-3 h time frame. The reaction rate at each concentration of compound was converted to percent inhibition using controls (i.e., reaction with no test compound and reaction with a known inhibitor) and IC50 values were calculated using software routines in Prism (GraphPad software).

T2 sequence (Q9NZJ5 with tags, fused parts or gaps A704S): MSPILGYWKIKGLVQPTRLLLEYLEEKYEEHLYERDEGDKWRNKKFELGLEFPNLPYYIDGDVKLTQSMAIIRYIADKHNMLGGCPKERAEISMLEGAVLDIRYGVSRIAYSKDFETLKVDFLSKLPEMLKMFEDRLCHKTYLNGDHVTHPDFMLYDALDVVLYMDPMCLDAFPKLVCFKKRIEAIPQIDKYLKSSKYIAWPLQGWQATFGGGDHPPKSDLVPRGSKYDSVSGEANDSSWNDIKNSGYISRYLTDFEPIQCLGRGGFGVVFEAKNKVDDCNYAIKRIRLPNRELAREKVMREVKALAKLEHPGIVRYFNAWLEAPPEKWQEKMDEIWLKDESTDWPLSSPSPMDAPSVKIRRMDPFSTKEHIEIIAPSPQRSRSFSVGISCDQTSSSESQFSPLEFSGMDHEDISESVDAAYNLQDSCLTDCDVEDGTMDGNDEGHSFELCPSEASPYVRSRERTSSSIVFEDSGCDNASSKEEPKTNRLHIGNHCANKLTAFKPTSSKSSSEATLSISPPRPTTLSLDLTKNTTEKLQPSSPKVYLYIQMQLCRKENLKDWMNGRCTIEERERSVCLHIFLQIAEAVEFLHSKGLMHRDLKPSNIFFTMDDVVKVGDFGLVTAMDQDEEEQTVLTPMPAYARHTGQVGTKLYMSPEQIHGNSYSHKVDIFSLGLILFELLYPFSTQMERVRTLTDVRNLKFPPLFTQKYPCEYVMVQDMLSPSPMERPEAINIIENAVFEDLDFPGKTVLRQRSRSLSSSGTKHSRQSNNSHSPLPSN

For `Cn1cc(-c2cccc(NS(=O)(=O)c3ccc(Cl)c(CO)c3F)c2F)c2c(N)ncnc21` [Example 5], the negative logarithm of the IC50 (pIC50) is 5.00 to 6.00 in test [1], 5.00 to 6.00 in test [2], 5.00 to 6.00 in test [3] and 6.00 to 6.30 in test [4].

Take `Cc1c(CO)cc(F)cc1S(=O)(=O)Nc1cccc(-c2nc(C)n3ccnc(N)c23)c1F` [Example 6]: the pIC50 in test [1] is 5.00 to 6.00; in test [2] it was 5.00 to 6.00; in test [3], 5.00 to 6.00; in test [4] it was no less than 7.00.

Consider `Cc1nc(-c2cccc(NS(=O)(=O)c3cc(Cl)cc(CO)c3F)c2F)c2c(N)nccn12` [Example 7], for which the negative-log IC50 (pIC50) in test [1] is 5.00 to 6.00; in test [2] it was 5.00 to 6.00; in test [3], 6.00 to 6.30; in test [4] it was no less than 7.00.

As for `Cc1nc(-c2cccc(NS(=O)(=O)c3cc(F)cc(CO)c3Cl)c2F)c2c(N)nccn12` [Example 8], the pIC50 in test [1] is 6.00 to 6.30; in test [2], 6.30 to 7.00; in test [3] it was 6.00 to 6.30; in test [4], no less than 7.00.

For the compound `Cn1cc(-c2cccc(NS(=O)(=O)c3cc(CO)c(F)cc3F)c2F)c2c(N)ncnc21` [Example 10], the pIC50 in test [1] is 5.00 to 6.00; in test [2] it was 5.00 to 6.00; in test [3] it was 5.00 to 6.00; in test [4], 6.30 to 7.00.

On to `COc1c(CO)cc(Cl)cc1S(=O)(=O)Nc1cccc(-c2nc(C)n3ccnc(N)c23)c1F` [Example 11], for which the negative logarithm of the IC50 (pIC50) in test [1] was 5.00 to 6.00; in test [2] it was 6.00 to 6.30; in test [3], 5.00 to 6.00; in test [4], 6.30 to 7.00.

Turning to `Cc1nc(-c2cccc(NS(=O)(=O)c3cc(F)cc(CO)c3F)c2F)c2c(N)nccn12` [Example 15], the pIC50 in test [1] was 5.00 to 6.00; in test [2] it was 5.00 to 6.00; in test [3], 5.00 to 6.00; in test [4], 6.30 to 7.00.

On to `COCCNc1nc(-c2cccc(NS(=O)(=O)c3cc(Cl)cc(CO)c3Cl)c2F)c2c(N)nccn12` [Example 23], for which the pIC50 in test [1] is 6.30 to 7.00; in test [2], 6.30 to 7.00; in test [3], 6.30 to 7.00; in test [4], no less than 7.00.

In the case of `Cn1cc(-c2cccc(NS(=O)(=O)c3ccc(F)c(CO)c3Cl)c2F)c2c(N)ncnc21` [Example 24], the pIC50 in test [1] is 5.00 to 6.00; in test [2], 5.00 to 6.00; in test [3], 5.00 to 6.00; in test [4], 6.30 to 7.00.

For `CCNc1nc(-c2cccc(NS(=O)(=O)c3cc(Cl)cc(CO)c3Cl)c2F)c2c(N)nccn12` [Example 27], the pIC50 is 6.30 to 7.00 in test [1], 6.30 to 7.00 in test [2], no less than 7.00 in test [3] and no less than 7.00 in test [4].

Take `COc1ncc(Cl)cc1S(=O)(=O)Nc1cc(F)c(F)c(-c2nc(C)n3ccnc(N)c23)c1` [Example 28]: the negative-log IC50 (pIC50) was 5.00 to 6.00 in test [1], 5.00 to 6.00 in test [2], 5.00 to 6.00 in test [3] and 6.00 to 6.30 in test [4].

Consider `CCC(C)(C)C(=O)OCc1cc(Cl)cc(S(=O)(=O)Nc2cccc(-c3nc(C)n4ccnc(N)c34)c2F)c1Cl` [Example 29], for which the negative-log IC50 (pIC50) in test [1], in test [2], in test [3] and in test [4] was 5.00 to 6.00 each time.

In the case of `CC(=O)OCc1cc(Cl)cc(S(=O)(=O)Nc2cccc(-c3nc(C(C)(C)C)n4ccnc(N)c34)c2F)c1Cl` [Example 30], the pIC50 is 5.00 to 6.00 in test [1], 5.00 to 6.00 in test [2], 5.00 to 6.00 in test [3] and 6.30 to 7.00 in test [4].

In the case of `Cc1nc(-c2cccc(NS(=O)(=O)c3cc(Cl)cc(COC(=O)C4CC4)c3Cl)c2F)c2c(N)nccn12` [Example 31], the pIC50 in test [1], in test [2], in test [3] and in test [4] was 5.00 to 6.00 in each case.

Turning to `CCC(=O)OCc1cc(Cl)cc(S(=O)(=O)Nc2cccc(-c3nc(C)n4ccnc(N)c34)c2F)c1Cl` [Example 32], the pIC50 in test [1] was 5.00 to 6.00; in test [2], 5.00 to 6.00; in test [4], 6.00 to 6.30.

Take `CCCC(=O)OCc1cc(Cl)cc(S(=O)(=O)Nc2cccc(-c3nc(C)n4ccnc(N)c34)c2F)c1Cl` [Example 33]: the pIC50 in test [1] was 6.30 to 7.00; in test [2] it was 6.30 to 7.00; in test [3], 5.00 to 6.00; in test [4], 6.00 to 6.30.

Take `Cn1cc(-c2cccc(NS(=O)(=O)c3ccc(Br)c(C(F)(F)F)c3)c2F)c2c(N)ncnc21` [Example 36]: the negative-log IC50 (pIC50) in test [1] is 5.00 to 6.00; in test [2], 5.00 to 6.00; in test [3], 5.00 to 6.00; in test [4], 6.30 to 7.00.

Turning to `COc1cc(F)c(S(=O)(=O)Nc2cccc(-c3cn(C)c4ncnc(N)c34)c2F)cc1Cl` [Example 37], the negative logarithm of the IC50 (pIC50) in test [1] is 6.00 to 6.30; in test [2] it was 6.30 to 7.00; in test [3], 6.30 to 7.00; in test [4], no less than 7.00.

Regarding `COC(=O)c1cccc(S(=O)(=O)Nc2cccc(-c3cn(C)c4ncnc(N)c34)c2F)c1Cl` [Example 39], the pIC50 in test [1] is 5.00 to 6.00; in test [2] it was 5.00 to 6.00; in test [3], 5.00 to 6.00; in test [4] it was 6.30 to 7.00.

As to `COC(=O)c1cc(Cl)cc(S(=O)(=O)Nc2cccc(-c3cn(C)c4ncnc(N)c34)c2F)c1Cl` [Example 40], the pIC50 in test [1] is 5.00 to 6.00; in test [2] it was 5.00 to 6.00; in test [3], 5.00 to 6.00; in test [4], no less than 7.00.

As to `COc1cc(Cl)c(S(=O)(=O)Nc2cccc(-c3cn(C)c4ncnc(N)c34)c2F)cc1Cl` [Example 41], the pIC50 is 5.00 to 6.00 in test [1], 6.30 to 7.00 in test [2], 5.00 to 6.00 in test [3] and no less than 7.00 in test [4].

In the case of `Cn1cc(-c2cccc(NS(=O)(=O)c3cc(Cl)cc(Br)c3Cl)c2F)c2c(N)ncnc21` [Example 42], the negative-log IC50 (pIC50) is 5.00 to 6.00 in test [1], 5.00 to 6.00 in test [2], 6.30 to 7.00 in test [3] and no less than 7.00 in test [4].

In the case of `COc1ccc(S(=O)(=O)Nc2cccc(-c3cn(C)c4ncnc(N)c34)c2F)cc1Cl` [Example 44], the pIC50 in test [1] was 5.00 to 6.00; in test [2], 6.00 to 6.30; in test [3], 5.00 to 6.00; in test [4], no less than 7.00.

For orientation: pIC50 means the negative decadic logarithm of the IC50, by convention in mol/L.
